Assay [1] deals with IKKε-mediated phosphorylation of IRF7. The assay can be described thus: In-situ IKKε-mediated phosphorylation of IRF7 in HEK293T cells (Western blot). It is filed as cell-based. (In general: A western blot detects proteins with antibodies after separation by electrophoresis.)
Assay [2] deals with RANTES production, human fibroblast-like synoviocytes (HFLS-RA). The assay can be described thus: Inhibition of RANTES production by HFLS-RA cells induced with Poly(I:C). The assay is classed as cell-based. Conditions: Poly(I:C) induction. The procedure: (§1) HFLS cells (HFLS-RA) isolated from patients with rheumatoid arthritis were obtained from Cell Applications, Inc. (San Diego, Calif.). Cells were seeded in synoviocyte growth medium (Cell Applications, Inc., San Diego, Calif.) and allowed to grow overnight. The following day, media was replaced and cells were treated with varying concentrations of selected compounds according to Formula I (e.g., Example Compound 5) (0.1% final DMSO concentration). Two hours later, cells were induced with 50 µg/mL Poly(I:C) (Sigma-Aldrich, St. Louis, Mo.). Supernatants were collected 20 hours post-induction and used to monitor RANTES and IP-10 levels using DuoSet ELISA kits (Human CXCL10/IP-10 DuoSet & Human CCL5/RANTES DuoSet; R&D Systems, Inc., Minneapolis, Minn.).

Assay [3] relates to IP-10 production, human fibroblast-like synoviocytes (HFLS-RA). The experiment in a line: Inhibition of IP-10 production by HFLS-RA cells induced with Poly(I:C). The assay is classed as cell-based. Conditions: Poly(I:C) induction. The procedure:
as §1

Assay [4] deals with Poly(I:C)-induced innate/adaptive immune and IFNα/β-regulated genes, HFLS-RA cells. The experiment in a line: Genes modulated by IKKε/TBK1 inhibition in HFLS-RA cells (qRT-PCR arrays, Poly(I:C)). It is filed as cell-based, human. Conditions: 500 nM pre-treatment. The procedure: IKKε and TBK1 play important roles in modulating several innate/adaptive immune and interferon-regulated genes in response to bacterial and viral infections. To identify genes that are under the control of IKKε and TBK1 kinase activity HFLS-RA cells (Cell Applications, Inc., San Diego, Calif.) were pretreated with a compound according to Formula I (Example Compound 5) (0.5 uM), and then treated with the TLR3 agonist Poly(I:C). A focused RT-PCR array containing either 84 innate/adaptive immune-regulated or 84 IFNα/β-regulated genes were probed by qRT-PCR using mRNA isolated from the treated cells, as well as from untreated control cells, according to the following protocol.
HFLS cells isolated from patients with RA were obtained from Cell Applications, Inc. (HFLS-RA, Cell Applications, Inc., San Diego, Calif.). Cells were seeded in synoviocyte growth medium (Cell Applications, Inc., San Diego, Calif.) and allowed to grow overnight. The following day, media was replaced and cells were treated with 500 nM of Example Compound 5 (0.1% final DMSO concentration). Two hours later, cells were induced with 50 µg/mL Poly(I:C) (Sigma-Aldrich, St. Louis, Mo.). […] RNA was quantitated using Quant-iT™ RiboGreen® RNA Assay Kit (Invitrogen, Inc., Carlsbad, Calif.). […]
Background: In qPCR the cycle at which signal appears reflects the starting amount.

The test system of assay [5] is insulin-stimulated glucose uptake, 3T3-L1 adipocytes. The assay can be described thus: Glucose uptake assay using differentiated 3T3-L1 adipocytes. The assay is classed as cell-based, Murine. Conditions: palmitic acid 48 hours. The procedure: To determine if IKK/TBK1 inhibitors prevent fatty acid induced insulin resistance in 3T3-L1 adipocytes, insulin-stimulated glucose uptake in the presence of compounds according to Formula I was monitored.
Murine 3T3-L1 cells were differentiated to adipocytes in 96-well plates by incubating for 2 days in adipogenic cocktail (10 ug/ml insulin, 115 ug/ml isobutylmethylxanthine, 1 uM dexamethasone) followed by incubation in insulin-supplemented medium for 2 days and complete media for an additional 5-10 days. Adipocytes were treated with BSA-complexed palmitic acid and a compound according to Formula I for 48 hours. Following free fatty acid treatment, adipoctyes were insulin-deprived in serum-free media for 2 hours. Subsequently, the media was replaced with KRH buffer containing a compound according to Formula I and 300 nM insulin for 15-20 minutes. [^14C]-labeled 2-deoxyglucose was then added for 15 minutes. Cells were thoroughly washed with ice-cold PBS, and intracellular [^14C]-2-deoxyglucose was measured in cell lysates by scintillation.

Another assay concerns BLyS mRNA, normal PBMCs. The assay can be described thus: Agonist induced BLyS mRNA in PBMCs from healthy donors (qRT-PCR). The assay is classed as cell-based, human. Conditions: LMW poly(I:C), serial dilutions. The source says: (§2) To determine if inhibition of IKKε and/or TBK1 modulates nucleic acid agonist induced gene expression, high molecular weight poly(I:C) (MDA5 agonist) and low weight poly(I:C) (RIG-I agonist) were electroporated into human peripheral blood mononuclear cells (PBMCs) obtained from normal donors, or low molecular weight Poly(I:C) was electroporated into PBMCs from donors that have Systemic Lupus Erythematosus (SLE). Induction of IFN-α2, IFN-β, and BLyS mRNA production was monitored by qRT-PCR.
(§3) Human PBMCs were collected from healthy donors using routine laboratory procedures. PBMCs from SLE patients were purchased from Astarte Biologics (Redmond, Wash.). The PBMCs were electroporated using Nucleofector® Kit V (Lonza, Walkersville, Md.) with 0.4 ug/mL of high molecular weight poly (I:C) (InvivoGen, San Diego, Calif.) or 0.4 ug/mL low molecular weight poly (I:C) (InvivoGen, San Diego, Calif.) and seeded into wells containing serial dilutions of Example Compound 5 (0.1% final DMSO concentration). […] RNA was quantitated using Quant-iT™ RiboGreen® RNA Assay Kit (Invitrogen, Carlsbad, Calif.). Reverse transcription and real-time PCR were performed using the QuantiTect Probe RT-PCR Kit (Qiagen, Germantown, Md.) and the 7300 Real-Time PCR System (Applied Biosytems, Foster City, Calif.). […]

The next assay has as its system IFN-α2 mRNA, SLE PBMCs. The experiment in a line: Agonist induced IFN-α2 mRNA in PBMCs from SLE patients (qRT-PCR). It is filed as cell-based, human. Conditions: LMW poly(I:C), serial dilutions.
From the text: as §2, §3

Usually IC50 stands for the point on the concentration scale where inhibition reaches its midpoint. Low readings indicate greater potency, high ones weaker potency. As for `N#Cc1cc(-c2ccnc(Nc3ccc(N4CCOCC4)cc3)n2)ccc1OC1CCOCC1` [Example 5, 5-(2-{[4-(Morpholin-4-yl)phenyl]amino}pyrimidin-4-yl)-2-(tetrahydro-2H-pyran-4-yloxy)benzaonitrile], the “inhibition of IKKε-mediated phosphorylation of IRF7” value in assay [1] was “inhibit”. The half-inhibitory concentration (IC50) in assay [2] and in assay [3] was roughly 60 nM each time. In assay [4], the “induction of genes normally induced by Poly(I:C) treatment” value is “potently inhibited”. Further, the “effect on free fatty acid inhibition of insulin-stimulated glucose uptake” value in assay [5] is listed as “reverse the inhibitory effects of free fatty acid on insulin-stimulated glucose uptake”. The “induction of BLyS mRNA” value with BLyS mRNA, normal PBMCs was “potently inhibited”. Also, the “induction of IFN-α2 mRNA” value with IFN-α2 mRNA, SLE PBMCs is “potently inhibited”.

The values are drawn from patent publication US20150352108A1, “AMINO-PYRIMIDINE COMPOUNDS AS INHIBITORS OF TBK1 AND/OR IKK EPSILON” (Alzheimer's Institute of America, priority 2009, published 2015).
